Assay results: patent US7598397B2, “Sulfonamide peri-substituted bicyclics for occlusive artery disease” (deCODE genetics ehf, priority 2004, dated 2009)

Molecular target: T1, prostanoid EP3 receptors (Homo sapiens, UniProt P43115)
T1 sequence (P43115 1-390): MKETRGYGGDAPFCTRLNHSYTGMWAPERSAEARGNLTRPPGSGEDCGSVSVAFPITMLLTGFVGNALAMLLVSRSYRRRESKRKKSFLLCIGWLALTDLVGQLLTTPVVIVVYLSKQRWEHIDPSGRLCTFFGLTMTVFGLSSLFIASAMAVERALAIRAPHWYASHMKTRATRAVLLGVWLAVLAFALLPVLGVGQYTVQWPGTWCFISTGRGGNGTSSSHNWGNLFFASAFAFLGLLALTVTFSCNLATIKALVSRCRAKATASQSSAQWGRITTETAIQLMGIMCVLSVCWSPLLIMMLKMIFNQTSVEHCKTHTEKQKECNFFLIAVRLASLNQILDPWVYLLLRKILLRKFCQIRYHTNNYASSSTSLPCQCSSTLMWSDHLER
Test: binding on prostanoid EP3 receptors (method of Abramovitz et al.)
Conditions: read-out: Activity (EP3 receptor binding, IC50 class)
Description: The compounds of the invention were assayed for their binding on prostanoid EP3 receptors according to the method of Abramovitz et al. [Bioch. Biophys.

| Structure (SMILES) | IC50 |
| --- | --- |
| CC(C)C1C(=O)N(Cc2ccc(Cl)cc2Cl)c2c(CCC(=O)NS(=O)(=O)c3cccs3)cccc21 (stereo not drawn) [Compound P093] | 1000 to 10000 nM |
| O=C(C=Cc1cccc2c1C(Nc1cc(Cl)cc(Cl)c1)C(=O)N2)NS(=O)(=O)c1cc(Cl)c(Cl)s1 (stereo not drawn) [Compound P286] | < 1000 nM |
| O=C(COc1cccc2c1C(Cc1ccc3ccccc3c1)C(=O)N2)NS(=O)(=O)c1cc(Cl)c(Cl)s1 (stereo not drawn) [Compound P158] | < 1000 nM |
| Cn1cc(C=CC(=O)NS(=O)(=O)c2cc(Cl)c(Cl)s2)c2c(Oc3ccc(Cl)cc3Cl)cccc21 [Compound P303] | < 1000 nM |
| O=C(C=Cc1cccc2c1N(Cc1ccc3ccccc3c1)C(=O)C2(F)F)NS(=O)(=O)c1cc(Cl)c(Cl)s1 [Compound P180] | < 1000 nM |
| O=C(COc1cccc2c1N(Cc1ccc(Cl)cc1Cl)C(=O)CO2)NS(=O)(=O)c1cccs1 [Compound P040] | < 1000 nM |
| Cn1cc(C=CC(=O)NS(=O)(=O)c2cc(Cl)c(Cl)s2)c2c(Oc3ccc(Cl)c(Cl)c3)cccc21 [Compound P290] | < 1000 nM |
| Cc1cn(Cc2ccc3ccccc3n2)c2c(/C=C/C(=O)NS(=O)(=O)c3cccs3)cccc12 [Compound P099] | < 1000 nM |
| CC12CCCC(C=CC(=O)NS(=O)(=O)c3cc(Cl)cc(Cl)c3)=C1N(Cc1ccc(F)c(F)c1)C(=O)C2 (stereo not drawn) [Compound P266] | < 1000 nM |
| O=C(C=Cc1cccc2c1N(Cc1ccc3ccccc3c1)C(=O)C21OCCO1)NS(=O)(=O)c1cccs1 [Compound P083] | < 1000 nM |
| CC12CCCC(C=CC(=O)NS(=O)(=O)c3cc(Cl)c(Cl)s3)=C1N(Cc1cccc(Cl)c1)C(=O)C2 (stereo not drawn) [Compound P285] | < 1000 nM |
| Cc1cn(Cc2cc(F)cc(F)c2)c2c(/C=C/C(=O)NS(=O)(=O)c3cccs3)cccc12 [Compound P088] | < 1000 nM |
| O=C(CCc1cccc2c1N(Cc1ccc3ccccc3c1)C(=O)C21OCCO1)NS(=O)(=O)c1cccs1 [Compound P097] | < 1000 nM |
| CC12CCCC(C=CC(=O)NS(=O)(=O)c3cc(Cl)c(Cl)s3)=C1N(Cc1ccc(Cl)cc1Cl)C(=O)C2 (stereo not drawn) [Compound P278] | < 1000 nM |
| O=C(COc1cccc2[nH]cc(Sc3ccc4ccccc4c3)c12)NS(=O)(=O)C(F)(F)F [Compound P243] | < 1000 nM |
| CC12CCCC(C=CC(=O)NS(=O)(=O)c3ccc(F)c(F)c3)=C1N(Cc1cccc(Cl)c1Cl)C(=O)C2 (stereo not drawn) [Compound P297] | < 1000 nM |
| CC12CCCC(/C=C/C(=O)NS(=O)(=O)c3cc(Cl)c(Cl)s3)=C1N(Cc1ccc(F)c(F)c1)C(=O)C2 (stereo not drawn) [Compound P264] | < 1000 nM |
| O=C(COc1cccc2[nH]cc(Sc3ccc(F)c(F)c3)c12)NS(=O)(=O)c1cc(Cl)c(Cl)s1 [Compound P209] | < 1000 nM |
| CC12CCCC(C=CC(=O)NS(=O)(=O)c3cc(F)c(F)cc3F)=C1N(Cc1cccc(Cl)c1Cl)C(=O)C2 (stereo not drawn) [Compound P296] | < 1000 nM |
| Cc1cn(Cc2ccc(Cl)cc2)c2c(/C=C/C(=O)NS(=O)(=O)c3cc(Cl)c(Cl)s3)cccc12 [Compound P137] | < 1000 nM |
| Cc1cn(Cc2ccc3ccccc3c2)c2c(/C=C/C(=O)N(C)S(=O)(=O)c3cc(Cl)c(Cl)s3)cc(F)cc12 [Compound P076] | < 1000 nM |
| O=C(C=Cc1cccc2c1N(Cc1ccc3ccccc3c1)C(=O)C2(F)F)NS(=O)(=O)c1cccs1 [Compound P218] | < 1000 nM |

| Structure (SMILES) | IC50 |
| --- | --- |
| CC1C(=O)N(Cc2ccc3ccccc3c2)c2c(C=CC(=O)NS(=O)(=O)c3cccs3)cccc21 (stereo not drawn) [Compound P059] | < 1000 nM |
| O=C(/C=C/c1cccc2c(CO)cn(Cc3ccc(Cl)cc3Cl)c12)NS(=O)(=O)c1cccs1 [Compound P062] | < 1000 nM |
| O=C(COc1cccc2[nH]cc(Sc3ccc4ccccc4c3)c12)NS(=O)(=O)c1cccs1 [Compound P166] | < 1000 nM |
| Cc1cn(Cc2cccc(C(F)(F)F)c2)c2c(/C=C/C(=O)NS(=O)(=O)c3cc(Cl)c(Cl)s3)cccc12 [Compound P119] | < 1000 nM |
| CC(=O)CC1(O)C(=O)N(Cc2ccc(Cl)cc2Cl)c2c(C=CC(=O)NS(=O)(=O)c3cc(Cl)c(Cl)s3)cccc21 (stereo not drawn) [Compound P128] | < 1000 nM |
| Cc1cn(Cc2cc3c(cc2Cl)OCO3)c2c(/C=C/C(=O)NS(=O)(=O)c3cccs3)cccc12 [Compound P089] | < 1000 nM |
| O=C(COc1cccc2c1N(Cc1ccccc1)C(=O)CO2)NS(=O)(=O)c1cccs1 [Compound P022] | 1000 to 10000 nM |
| Cc1cn(Cc2ccccc2Cl)c2c(/C=C/C(=O)NS(=O)(=O)c3cc(Cl)c(Cl)s3)cccc12 [Compound P123] | < 1000 nM |
| CC1(Br)C(=O)N(Cc2ccc3ccccc3c2)c2c(C=CC(=O)NS(=O)(=O)c3cccs3)cccc21 (stereo not drawn) [Compound P110] | < 1000 nM |
| CC12CCCC(C=CC(=O)NS(=O)(=O)c3ccc(F)c(F)c3)=C1N(Cc1ccc(Cl)cc1Cl)C(=O)C2 (stereo not drawn) [Compound P283] | < 1000 nM |
| CC12CCCC(C=CC(=O)NS(=O)(=O)c3cc(F)cc(F)c3)=C1N(Cc1ccc(Cl)cc1Cl)C(=O)C2 (stereo not drawn) [Compound P282] | < 1000 nM |
| O=C(COc1cccc2[nH]cc(S(=O)(=O)c3nc[nH]n3)c12)NS(=O)(=O)c1cc(Cl)c(Cl)s1 [Compound P240] | < 1000 nM |
| O=Cc1cn(Cc2ccc(Cl)cc2Cl)c2c(C=CC(=O)NS(=O)(=O)c3cccs3)cccc12 [Compound P069] | < 1000 nM |
| Cc1cn(Cc2ccc(OC(F)(F)F)cc2)c2c(/C=C/C(=O)NS(=O)(=O)c3cc(Cl)c(Cl)s3)cccc12 [Compound P143] | < 1000 nM |
| O=C(C=Cc1cccc2ccn(C(=O)c3ccc4ccccc4c3)c12)NS(=O)(=O)c1cccs1 [Compound P005] | < 1000 nM |
| CC1C(=O)N(Cc2ccc(Cl)cc2Cl)c2c(C=CC(=O)NS(=O)(=O)c3cc(Cl)c(Cl)s3)cccc21 (stereo not drawn) [Compound P107] | < 1000 nM |
| O=C(COc1cccc2c1N(Cc1ccc3nonc3c1)C(=O)CO2)NS(=O)(=O)c1cccs1 [Compound P042] | 1000 to 10000 nM |
| Cc1cn(Cc2ccc(Cl)cc2Cl)c2c(CCC(=O)NS(=O)(=O)c3cc(Cl)c(Cl)s3)cccc12 [Compound P072] | < 1000 nM |
| CCOP(=O)(NC(=O)OCc1cccc2ccn(Cc3ccc4ccccc4c3)c12)OCC [Compound P044] | 1000 to 10000 nM |
| O=C(C=Cc1cccc2c1C(=Nc1ccc3ccccc3c1)C(=O)N2)NS(=O)(=O)c1cc(Cl)c(Cl)s1 [Compound P244] | < 1000 nM |
| Cc1ccc(C)c(Cn2ccc3cccc(C=CC(=O)NS(=O)(=O)c4cccs4)c32)c1 [Compound P008] | < 1000 nM |

Continued, values first:

| IC50 | Structure (SMILES) |
| --- | --- |
| < 1000 nM | O=C(C=Cc1cc(F)cc2c(CO)cn(Cc3ccc(Cl)cc3Cl)c12)NS(=O)(=O)c1cc(Cl)c(Cl)s1 [Compound P397] |
| < 1000 nM | Cn1cc(C=CC(=O)NS(=O)(=O)c2cc(Cl)cc(Cl)c2)c2c(Oc3ccc4ccccc4c3)cccc21 [Compound P357] |
| < 1000 nM | CC12CCCC(C=CC(=O)NS(=O)(=O)c3cc(F)cc(F)c3)=C1N(Cc1ccc(F)c(F)c1)C(=O)C2 (stereo not drawn) [Compound P305] |
| < 1000 nM | Cn1cc(C=CC(=O)NS(=O)(=O)c2cc(Cl)c(Cl)s2)c2c(Oc3ccc(F)c(Cl)c3)cccc21 [Compound P330] |
| < 1000 nM | COc1ccc(S(=O)(=O)NC(=O)C=Cc2cn(C)c3cccc(Oc4ccc5ccccc5c4)c23)cc1 [Compound P366] |
| < 1000 nM | Cc1cn(Cc2ccc(Cl)cc2Cl)c2c(C(=O)NS(=O)(=O)c3ccc(F)c(F)c3)cc(F)cc12 [Compound P417] |
| < 1000 nM | Cc1cn(Cc2ccc(F)c(F)c2)c2c(C=CC(=O)NS(=O)(=O)c3ccc(F)c(F)c3)cc(F)cc12 [Compound P315] |
| < 1000 nM | Cn1cc(C=CC(=O)NS(=O)(=O)c2ccc(F)cc2F)c2c(Oc3ccc4ccccc4c3)cccc21 [Compound P358] |
| < 1000 nM | Cn1cc(C=CC(=O)NS(=O)(=O)c2ccc(F)c(F)c2)c2c(Oc3cnc4ccccc4n3)cccc21 [Compound P393] |
| < 1000 nM | Cc1cn(Cc2cn3ccccc3n2)c2c(/C=C/C(=O)NS(=O)(=O)c3cccc(Cl)c3)cc(F)cc12 [Compound P400] |
| < 1000 nM | Cn1cc(C=CC(=O)NS(=O)(=O)c2cc(F)c(F)cc2F)c2c(Oc3ccc4ncccc4c3)cccc21 [Compound P377] |
| < 1000 nM | Cn1cc(CCC(=O)NS(=O)(=O)c2ccc(F)c(F)c2)c2c(Oc3ccc4ccccc4c3)cccc21 [Compound P362] |
| < 1000 nM | COc1cccc(CN2C(=O)CC3(C)CCCC(C=CC(=O)NS(=O)(=O)c4ccc(F)c(F)c4)=C23)c1 (stereo not drawn) [Compound P308] |
| < 1000 nM | Cc1cn(CCC(=O)NS(=O)(=O)c2ccc(F)c(F)c2)c2c(Oc3ccc4ccccc4c3)cc(F)cc12 [Compound P379] |
| < 1000 nM | Cc1cn(CCC(=O)NS(=O)(=O)c2cc(F)c(F)cc2F)c2c(Oc3ccc4ccccc4c3)cc(F)cc12 [Compound P378, 2,4,5-Trifluoro-N-{3-[5-fluoro-3-methyl-7-(naphthalen-2-yloxy)-indol-1-yl]-propionyl}-benzenesulfonamide] |
| < 1000 nM | Cn1cc(/C=C/C(=O)NS(=O)(=O)c2cc(Cl)c(Cl)s2)c2c(Oc3ccc(Cl)cc3F)cccc21 [Compound P339] |
| < 1000 nM | Cc1cn(CCC(=O)NS(=O)(=O)c2cccc(Cl)c2)c2c(Oc3ccc(Cl)cc3Cl)cc(F)cc12 [Compound P385] |
| < 1000 nM | Cc1cn(CCC(=O)NS(=O)(=O)c2cc(F)c(F)cc2F)c2c(Oc3ccc(Cl)c(Cl)c3)cc(F)cc12 [Compound P386] |
| < 1000 nM | CC12CCCC(C=CC(=O)NS(=O)(=O)c3ccc(F)c(F)c3)=C1N(Cc1ccc(F)c(F)c1)C(=O)C2 (stereo not drawn) [Compound P304] |
| < 1000 nM | Cc1cn(CCC(=O)NS(=O)(=O)c2cc(Cl)c(Cl)s2)c2c(Oc3ccc(Cl)cc3Cl)cc(F)cc12 [Compound P384] |
